As usually defined, the EC50 is the concentration giving half of the maximal effect. A higher EC50 goes with weaker potency.

A value given as a limit tells only on which side of the number the result lay.

The source of these data is patent US9567322B2, “Substituted tetrahydropyrans and method of use” (AbbVie S.á.r.l., priority 2014, dated 2017).

This experiment deals with T1, F508delCFTR (Homo sapiens, UniProt P13569, DEL508-508).
T1 construct: expressed in transfected cells; host or cells: CFBE41o- (CFBE41o-F508delCFTR-HRP), doxycycline-inducible
The experiment can be described thus: Cell Surface Expression-Horse Radish Peroxidase (CSE-HRP) assay. The experiment is classed as cell-based. The note with it: CFBE41o-F508delCFTR-HRP cells; for EC50: cell surface expression, luminescence readout, 18-24 hours at 33° C., highest concentration tested 20 μM, 8-point curve; for Maximum % activity: maximum at any tested concentration, normalized to on-plate positive control (3 μM) and DMSO. The method in brief:
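CFBE41o- cells expressing F508delCFTR with HRP in the fourth extracellular loop were doxycycline-induced (0.5 μg/mL) for 72 h at 37 °C, then treated 18-24 h at 33 °C with an 8-point 3-fold series from 20 μM. Surface HRP luminescence (luminol) was normalized to DMSO and positive control; EC50 came from variable-slope sigmoidal fits of triplicate plates.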

T1 sequence (P13569 with tags, fused parts or gaps DEL508-508): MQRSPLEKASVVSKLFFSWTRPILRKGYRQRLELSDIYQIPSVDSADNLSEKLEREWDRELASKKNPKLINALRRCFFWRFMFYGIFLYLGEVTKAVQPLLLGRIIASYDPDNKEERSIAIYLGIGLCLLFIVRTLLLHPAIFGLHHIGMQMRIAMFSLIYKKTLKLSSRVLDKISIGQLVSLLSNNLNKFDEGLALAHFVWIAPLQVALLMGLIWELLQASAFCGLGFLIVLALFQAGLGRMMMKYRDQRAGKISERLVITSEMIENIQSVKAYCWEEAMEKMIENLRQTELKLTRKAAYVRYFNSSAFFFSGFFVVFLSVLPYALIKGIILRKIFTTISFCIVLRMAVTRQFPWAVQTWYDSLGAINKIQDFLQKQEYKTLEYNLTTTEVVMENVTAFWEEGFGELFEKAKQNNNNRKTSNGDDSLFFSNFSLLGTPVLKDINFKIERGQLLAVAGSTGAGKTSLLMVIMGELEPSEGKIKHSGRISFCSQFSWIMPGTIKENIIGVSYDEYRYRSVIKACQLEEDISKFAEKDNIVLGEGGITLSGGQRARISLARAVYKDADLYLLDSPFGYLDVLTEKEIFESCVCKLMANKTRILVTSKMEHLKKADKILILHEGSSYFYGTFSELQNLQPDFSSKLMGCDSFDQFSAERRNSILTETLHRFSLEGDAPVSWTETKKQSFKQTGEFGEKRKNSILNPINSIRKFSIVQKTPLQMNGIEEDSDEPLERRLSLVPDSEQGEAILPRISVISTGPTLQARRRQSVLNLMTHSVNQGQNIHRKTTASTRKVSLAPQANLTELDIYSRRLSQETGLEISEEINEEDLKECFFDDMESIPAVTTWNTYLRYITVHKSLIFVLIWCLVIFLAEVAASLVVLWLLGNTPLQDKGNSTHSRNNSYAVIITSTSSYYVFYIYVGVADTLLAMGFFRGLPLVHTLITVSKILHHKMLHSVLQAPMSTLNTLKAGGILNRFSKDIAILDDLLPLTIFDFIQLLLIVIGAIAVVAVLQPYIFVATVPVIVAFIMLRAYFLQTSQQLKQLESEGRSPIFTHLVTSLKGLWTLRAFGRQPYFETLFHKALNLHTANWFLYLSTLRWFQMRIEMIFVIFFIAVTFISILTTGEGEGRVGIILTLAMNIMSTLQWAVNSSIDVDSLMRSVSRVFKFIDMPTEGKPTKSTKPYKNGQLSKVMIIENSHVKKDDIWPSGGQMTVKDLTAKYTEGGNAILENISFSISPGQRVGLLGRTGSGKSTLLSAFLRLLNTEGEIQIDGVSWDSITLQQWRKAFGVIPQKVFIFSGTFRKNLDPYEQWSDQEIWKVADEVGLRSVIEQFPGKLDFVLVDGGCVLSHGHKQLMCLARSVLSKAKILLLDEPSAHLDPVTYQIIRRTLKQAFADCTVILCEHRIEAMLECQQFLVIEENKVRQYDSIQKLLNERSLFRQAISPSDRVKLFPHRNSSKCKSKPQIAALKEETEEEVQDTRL

Consider `COc1ccc([C@@H]2C[C@H](NC(=O)C3(c4ccc5c(c4)OC(F)(F)O5)CC3)C[C@H](c3ccc(C(=O)O)cc3)O2)cc1` (single isomer, unassigned) [Example 66], for which the EC50 was 320 nM and the Maximum % activity is on record as 79%.

Regarding `COc1ccc([C@H]2C[C@@H](NC(=O)C3(c4ccc5c(c4)OC(F)(F)O5)CC3)C[C@@H](c3ccc(C(=O)O)cc3)O2)cc1` (single isomer, unassigned) [Example 67], it took 2410 nM to reach a half-maximal effect (EC50) and the Maximum % activity worked out at 54%.

As for `COc1cccc([C@@H]2C[C@H](NC(=O)C3(c4ccc5c(c4)OC(F)(F)O5)CC3)C[C@H](c3cccc(C(=O)O)c3)O2)c1` (single isomer, unassigned) [Example 74], the EC50 worked out at 240 nM and the Maximum % activity was 89%.

For the compound `Cc1cc(C(=O)O)cc([C@H]2C[C@@H](NC(=O)C3(c4ccc5c(c4)OC(F)(F)O5)CC3)C[C@@H](c3ccccc3)O2)c1` (single isomer, unassigned) [Example 75], the EC50 came to 220 nM and the Maximum % activity is given as 105%.

Take `Cc1cc(C(=O)O)cc([C@@H]2C[C@H](NC(=O)C3(c4ccc5c(c4)OC(F)(F)O5)CC3)C[C@H](c3ccccc3)O2)c1` (single isomer, unassigned) [Example 76]: the EC50 turned out to be 1590 nM and the Maximum % activity was determined as 38%.

`Cc1cc(C(=O)O)ccc1[C@H]1C[C@@H](NC(=O)C2(c3ccc4c(c3)OC(F)(F)O4)CC2)CCO1` (stereo in doubt) [Example 37, rac-4-[(2R,4S)-4-({[1-(2,2-difluoro-1,3-benzodioxol-5-yl)cyclopropyl]carbonyl}amino)tetrahydro-2H-pyran-2-yl]-3-methylbenzoic acid]: the EC50 came out at 470 nM and the Maximum % activity worked out at 115%.

As to `Cc1cc(C(=O)O)ccc1[C@@H]1C[C@H](NC(=O)C2(c3ccc4c(c3)OC(F)(F)O4)CC2)CCO1` (stereo in doubt) [Example 42, rel-4-[(2S,4R)-4-({[1-(2,2-difluoro-1,3-benzodioxol-5-yl)cyclopropyl]carbonyl}amino)tetrahydro-2H-pyran-2-yl]-3-methylbenzoic acid], the concentration giving a half-maximal response (EC50) came out at 6870 nM and the Maximum % activity is 36%.

As for `Cc1cc(C(=O)O)ccc1[C@H]1C[C@@H](NC(=O)C2(c3ccc4c(c3)OC(F)(F)O4)CC2)CCO1` (stereo in doubt) [Example 43, rel-4-[(2R,4S)-4-({[1-(2,2-difluoro-1,3-benzodioxol-5-yl)cyclopropyl]carbonyl}amino)tetrahydro-2H-pyran-2-yl]-3-methylbenzoic acid], the midpoint of the response, the EC50, lay at 320 nM and the Maximum % activity is on record as 119%.

Turning to `O=C(N[C@@H]1CCO[C@H](c2ccc3c(c2)OCO3)C1)C1(c2ccc3c(c2)OC(F)(F)O3)CC1` [Example 15, N-[(2S,4R)-2-(1,3-benzodioxol-5-yl)tetrahydro-2H-pyran-4-yl]-1-(2,2-difluoro-1,3-benzodioxol-5-yl)cyclopropanecarboxamide], the EC50 was found to be 6700 nM and the Maximum % activity was found to be 75%.

Regarding `COC(=O)c1cccc([C@@H]2C[C@H](NC(=O)C3(c4ccc5c(c4)OC(F)(F)O5)CC3)CCO2)c1` [Example 16, methyl 3-[(2S,4R)-4-({[1-(2,2-difluoro-1,3-benzodioxol-5-yl)cyclopropyl]carbonyl}amino)tetrahydro-2H-pyran-2-yl]benzoate], the EC50 worked out at 2620 nM and the Maximum % activity worked out at 44%.

`COC(=O)c1cccc([C@H]2C[C@@H](NC(=O)C3(c4ccc5c(c4)OC(F)(F)O5)CC3)CCO2)c1` [Example 17, methyl 3-[(2R,4S)-4-({[1-(2,2-difluoro-1,3-benzodioxol-5-yl)cyclopropyl]carbonyl}amino)tetrahydro-2H-pyran-2-yl]benzoate]: the 50% effective concentration (EC50) is 1110 nM and the Maximum % activity is on record as 81%.

With `O=C(O)c1cccc([C@@H]2C[C@H](NC(=O)C3(c4ccc5c(c4)OC(F)(F)O5)CC3)CCO2)c1` [Example 18, 3-[(2S,4R)-4-({[1-(2,2-difluoro-1,3-benzodioxol-5-yl)cyclopropyl]carbonyl}amino)tetrahydro-2H-pyran-2-yl]benzoic acid], the EC50 is ≥ 20000 nM and the Maximum % activity worked out at 3%.

In the case of `O=C(N[C@@H]1CCO[C@@H](c2ccc(Br)cc2)C1)C1(c2ccc3c(c2)OC(F)(F)O3)CC1` [Example 20, N-[(2R,4R)-2-(4-bromophenyl)tetrahydro-2H-pyran-4-yl]-1-(2,2-difluoro-1,3-benzodioxol-5-yl)cyclopropanecarboxamide], it took 7300 nM to reach a half-maximal effect (EC50) and the Maximum % activity came out at 45%.

For the compound `O=C(N[C@H]1CCO[C@H](c2ccc(Br)cc2)C1)C1(c2ccc3c(c2)OC(F)(F)O3)CC1` [Example 21, N-[(2S,4S)-2-(4-bromophenyl)tetrahydro-2H-pyran-4-yl]-1-(2,2-difluoro-1,3-benzodioxol-5-yl)cyclopropanecarboxamide], the EC50 was determined as 7720 nM and the Maximum % activity is reported as 59%.

Consider `O=C(O)c1cccc([C@@H]2C[C@H](NC(=O)C3(c4ccc5c(c4)OC(F)(F)O5)CC3)C[C@H](c3ccccc3)O2)c1` [Example 26, 3-[(2S,4R,6R)-4-({[1-(2,2-difluoro-1,3-benzodioxol-5-yl)cyclopropyl]carbonyl}amino)-6-phenyltetrahydro-2H-pyran-2-yl]benzoic acid], for which the EC50 is ≥ 20000 nM and the Maximum % activity is given as 16%.

In the case of `COC(=O)c1ccc([C@@H]2C[C@H](NC(=O)C3(c4ccc5c(c4)OC(F)(F)O5)CC3)CCO2)cc1` [Example 28, methyl 4-[(2S,4R)-4-({[1-(2,2-difluoro-1,3-benzodioxol-5-yl)cyclopropyl]carbonyl}amino)tetrahydro-2H-pyran-2-yl]benzoate], the EC50 came to 3310 nM and the Maximum % activity was 73%.

Turning to `COC(=O)c1ccc([C@H]2C[C@@H](NC(=O)C3(c4ccc5c(c4)OC(F)(F)O5)CC3)CCO2)cc1` [Example 29, methyl 4-[(2R,4S)-4-({[1-(2,2-difluoro-1,3-benzodioxol-5-yl)cyclopropyl]carbonyl}amino)tetrahydro-2H-pyran-2-yl]benzoate], the EC50 was found to be 1050 nM and the Maximum % activity was found to be 107%.

For the compound `O=C(O)c1ccc([C@@H]2C[C@H](NC(=O)C3(c4ccc5c(c4)OC(F)(F)O5)CC3)CCO2)cc1` [Example 30, 4-[(2S,4R)-4-({[1-(2,2-difluoro-1,3-benzodioxol-5-yl)cyclopropyl]carbonyl}amino)tetrahydro-2H-pyran-2-yl]benzoic acid], it took 9570 nM to reach a half-maximal effect (EC50) and the Maximum % activity was determined as 26%.

For the compound `O=C(O)c1ccc(C2CC(NC(=O)C3(c4ccc5c(c4)OC(F)(F)O5)CC3)CC(C3CC3)O2)cc1` (stereo not drawn) [Example 44, 4-[6-cyclopropyl-4-({[1-(2,2-difluoro-1,3-benzodioxol-5-yl)cyclopropyl]carbonyl}amino)tetrahydro-2H-pyran-2-yl]benzoic acid], a half-maximal effect (EC50) was put at 2580 nM and the Maximum % activity amounted to 88%.

Regarding `COC(=O)c1ccc([C@@H]2C[C@H](NC(=O)C3(c4ccc5c(c4)OC(F)(F)O5)CC3)C[C@H](c3ccc(C(=O)OC)cc3)O2)cc1` [Example 51, dimethyl rac-4,4′-[(2R,4s,6S)-4-({[1-(2,2-difluoro-1,3-benzodioxol-5-yl)cyclopropyl]carbonyl}amino)tetrahydro-2H-pyran-2,6-diyl]dibenzoate], the EC50 turned out to be 760 nM and the Maximum % activity was 103%.

Turning to `COC(=O)c1ccc([C@@H]2C[C@@H](NC(=O)C3(c4ccc5c(c4)OC(F)(F)O5)CC3)C[C@H](c3ccc(C(=O)OC)cc3)O2)cc1` [Example 52, dimethyl rac-4,4′-[(2R,4r,6S)-4-({[1-(2,2-difluoro-1,3-benzodioxol-5-yl)cyclopropyl]carbonyl}amino)tetrahydro-2H-pyran-2,6-diyl]dibenzoate], the 50% effective concentration (EC50) worked out at 1800 nM and the Maximum % activity turned out to be 70%.
